In patent EP3225257A1, “AMPHIPHILIC MONOMERS BASED NANOVECTORS AND THEIR USE FOR SIRNA DELIVERY” (Université de Strasbourg, priority 2016, dated 2017):

Test system: A549-luc cells
Experiment: siRNA delivery, luciferase gene silencing
Type: cell-based, human
Conditions: 10 nM siRNA, 48 h
Protocol: The A549-luc cells that stably express the reporter gene luciferase GL3 (1-2 x 10^10 RLU/mg protein) were established by transfecting human lung carcinoma A549 cells (CCL-185; ATCC) with pGL3-Luc plasmid (Clontech, Mountain View, CA, USA) using jetPEI™ as delivery system (Polyplus-Transfection, Illkirch, France). Cells were grown in RPMI 1640 medium (Eurobio, Les Ulis, France) supplemented with 10% Fetal Bovine Serum (Eurobio, Les Ulis, France), 1% antibiotic solution (pencillin-streptomycin, Gibco-invitrogen) and maintained under 0.8 µg/mL G418 selection (Promega, Madison, WI, USA) at 37 °C in a 5% CO2 humidified atmosphere. […]
Luciferase gene expression was determined 48 h after delivery with a Luciferase Assay System (Promega, Charbonnières, France) according to manufacturer's instructions. The luminescence was quantified using 2 µL of cell lysate with a Centro LB luminometer (Berthold, Thoiry, France). Protein concentration in cell lysate was measured by using a BCA assay kit (Interchim, Montluçon, France), according to manufacturer's instructions. After expressing the luciferase activity as relative light units integrated over 10 s per mg of cell protein (RLU/mg), the luciferase gene silencing was calculated relative to the luciferase activity of non-transfected A549-luc cells.

| Substance | specific inhibition (40 µg/ml, polymerized micelles of the surfactant) [%] | maximum inhibition (polymerized micelles of the surfactant at increasing concentrations) [%] |
| --- | --- | --- |
| C25diynetrioxa-L-Histidine [compound 1] | 80 | – |
| C25diynetrioxaamine [compound 2] | – | 25 |
